# Measured values published in the supplement of paper PMC10307832.
# Compound: COc1cccc2cc(-c3nc([C@H]4CC[C@H](C(=O)O)CC4)n4ncnc(N)c34)[nH]c12 [OSI-027] + NC(=O)Nc1cc(-c2cccc(F)c2)sc1C(=O)N[C@H]1CCCNC1 [AZD7762] (partner 0.2 µM)
# Experiment: relative viability (nuclei count vs DMSO), 5 days (fraction); higher = more cells survive
# Conditions: first compound 0.01 µM
# How it was run: (§1)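 Lung cancer cell lines, seeded in 1536-well plates, were treated the following day by pin tool with a single drug or with five library-drug doses (not always all listed) in √10 steps on top of a fixed anchor-drug dose. Cells were fixed and nuclei stained in one step after 5 days, and nuclei were counted. Relative viability is the nuclei count for treated wells divided by that for vehicle wells, reported as medians of duplicate plates.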
row,Cell Line,relative viability
1,LK-2,0.538
2,NCI-H2405,0.701
3,NCI-H1993,0.777
4,NCI-H1355,0.703
5,HCC-366,0.393
6,NCI-H1915,0.728
7,NCI-H838,0.923
8,A-427,0.676
9,EKVX,0.694
10,NCI-H2087,1.32
11,NCI-H1734,0.619
12,LU99A,0.462
13,NCI-H460,0.731
14,NCI-H2170,0.995
15,HCC-15,1.14
16,NCI-H1944,0.611
17,EMC-BAC-2,1.05

row,Cell Line,relative viability
1,NCI-H1395,0.316
2,LC-2-ad,0.835
3,NCI-H2085,0.978
4,NCI-H727,0.557
5,NCI-H647,0.402
6,HARA,0.27
7,NCI-H3122,1.06
8,CAL-12T,0.626
9,LCLC-97TM1,0.245
10,NCI-H23,0.231
11,HCC-827,0.194
12,NCI-H2347,0.683
13,LXF-289,1.06
14,NCI-H1666,0.837
15,RERF-LC-KJ,1.05
16,NCI-H322M,0.621

# Same assay, conditions: first compound 0.03162 µM
row,Cell Line,relative viability
1,NCI-H2405,0.836
2,NCI-H1703,0.0974
3,NCI-H1993,0.728
4,NCI-H1355,0.88
5,HCC-366,0.325
6,NCI-H1915,0.792
7,NCI-H838,0.838
8,A-427,0.52
9,EKVX,0.726
10,NCI-H2087,1.1
11,NCI-H1734,0.532
12,LU99A,0.321
13,NCI-H460,0.668
14,NCI-H2170,0.824
15,HCC-15,1.21
16,NCI-H1944,0.43
17,EMC-BAC-2,1.14

row,Cell Line,relative viability
1,NCI-H1395,0.398
2,LC-2-ad,0.77
3,NCI-H2085,0.925
4,NCI-H727,0.568
5,NCI-H647,0.558
6,HARA,0.301
7,NCI-H3122,1.09
8,CAL-12T,0.741
9,LCLC-97TM1,0.301
10,NCI-H23,0.259
11,HCC-827,0.201
12,NCI-H2347,0.733
13,LXF-289,1.02
14,NCI-H1666,0.707
15,RERF-LC-KJ,0.742
16,NCI-H322M,0.61

# Same assay, conditions: first compound 0.1 µM
row,Cell Line,relative viability
1,LK-2,0.277
2,NCI-H2405,0.699
3,NCI-H1993,0.606
4,NCI-H1355,0.753
5,HCC-366,0.216
6,NCI-H1915,0.72
7,NCI-H838,0.855
8,A-427,0.557
9,EKVX,0.666
10,NCI-H2087,1.4
11,NCI-H1734,0.537
12,LU99A,0.28
13,NCI-H460,0.473
14,NCI-H2170,0.768
15,HCC-15,1.19
16,NCI-H1944,0.648
17,EMC-BAC-2,0.833

row,Cell Line,relative viability
1,NCI-H1395,0.396
2,LC-2-ad,0.879
3,NCI-H2085,0.953
4,NCI-H727,0.41
5,NCI-H647,0.362
6,HARA,0.36
7,NCI-H3122,0.995
8,CAL-12T,0.603
9,LCLC-97TM1,0.371
10,NCI-H23,0.26
11,HCC-827,0.195
12,NCI-H2347,0.756
13,LXF-289,1.23
14,NCI-H1666,0.763
15,RERF-LC-KJ,0.871
16,NCI-H322M,0.481

# Same assay, conditions: first compound 0.3162 µM
row,Cell Line,relative viability
1,LK-2,0.16
2,NCI-H2405,0.598
3,NCI-H1703,0.127
4,NCI-H1993,0.542
5,NCI-H1355,0.628
6,HCC-366,0.285
7,NCI-H1915,0.592
8,NCI-H838,0.806
9,A-427,0.541
10,EKVX,0.692
11,NCI-H2087,1.1
12,NCI-H1734,0.408
13,LU99A,0.133
14,NCI-H460,0.548
15,NCI-H2170,0.689
16,HCC-15,1.28
17,NCI-H1944,0.56

row,Cell Line,relative viability
1,EMC-BAC-2,0.791
2,NCI-H1395,0.352
3,LC-2-ad,0.894
4,NCI-H2085,0.97
5,NCI-H727,0.576
6,NCI-H647,0.314
7,HARA,0.419
8,NCI-H3122,0.946
9,CAL-12T,0.668
10,LCLC-97TM1,0.276
11,NCI-H23,0.253
12,HCC-827,0.205
13,NCI-H2347,0.595
14,LXF-289,1.15
15,NCI-H1666,0.766
16,RERF-LC-KJ,0.748
17,NCI-H322M,0.427

# Same assay, conditions: first compound 1 µM
row,Cell Line,relative viability
1,LK-2,0.112
2,NCI-H2405,0.376
3,NCI-H1703,0.119
4,NCI-H1993,0.416
5,NCI-H1355,0.38
6,HCC-366,0.217
7,NCI-H1915,0.653
8,NCI-H838,0.801
9,A-427,0.399
10,EKVX,0.562
11,NCI-H2087,0.929
12,NCI-H1734,0.251
13,LU99A,0.171
14,NCI-H460,0.336
15,NCI-H2170,0.515
16,HCC-15,0.986
17,NCI-H1944,0.371

row,Cell Line,relative viability
1,EMC-BAC-2,0.63
2,NCI-H1395,0.386
3,LC-2-ad,0.615
4,NCI-H2085,0.61
5,NCI-H727,0.546
6,NCI-H647,0.348
7,HARA,0.365
8,NCI-H3122,0.486
9,CAL-12T,0.585
10,LCLC-97TM1,0.18
11,NCI-H23,0.215
12,HCC-827,0.214
13,NCI-H2347,0.299
14,LXF-289,0.959
15,NCI-H1666,0.585
16,RERF-LC-KJ,0.452
17,NCI-H322M,0.419

# Compound: CCCS(=O)(=O)Nc1ccc(F)c(C(=O)c2c[nH]c3ncc(-c4ccc(Cl)cc4)cc23)c1F [Vemurafenib] + CS(=O)(=O)CCNCc1ccc(-c2ccc3ncnc(Nc4ccc(OCc5cccc(F)c5)c(Cl)c4)c3c2)o1 [Lapatinib] (partner 2 µM)
# Experiment: as above
# Conditions: first compound 0.03162 µM
# How it was run: as §1
row,Cell Line,relative viability
1,LK-2,0.674
2,NCI-H2405,0.935
3,NCI-H1703,1.19
4,NCI-H1993,0.843
5,NCI-H1355,0.962
6,HCC-366,1.09
7,NCI-H1915,0.894
8,NCI-H838,0.877
9,A-427,0.907
10,EKVX,0.189
11,NCI-H2087,0.761
12,NCI-H1734,0.872
13,LU99A,0.878
14,NCI-H460,0.929
15,NCI-H2170,0.277
16,HCC-15,0.786
17,NCI-H1944,0.818

row,Cell Line,relative viability
1,EMC-BAC-2,0.874
2,NCI-H1395,0.891
3,LC-2-ad,0.881
4,NCI-H2085,0.729
5,NCI-H727,0.653
6,NCI-H647,0.951
7,HARA,0.745
8,NCI-H3122,1.03
9,CAL-12T,0.63
10,LCLC-97TM1,0.825
11,NCI-H23,0.87
12,HCC-827,0.209
13,NCI-H2347,0.794
14,LXF-289,0.892
15,NCI-H1666,0.581
16,RERF-LC-KJ,0.782
17,NCI-H322M,0.583

# Same assay, conditions: first compound 0.1 µM
row,Cell Line,relative viability
1,LK-2,0.867
2,NCI-H2405,0.986
3,NCI-H1703,0.916
4,NCI-H1355,0.956
5,HCC-366,1.07
6,NCI-H1915,0.951
7,NCI-H838,1.05
8,A-427,1.07
9,NCI-H2087,0.981
10,NCI-H1734,1.04
11,LU99A,0.985
12,NCI-H460,1.08
13,NCI-H2170,0.244
14,HCC-15,0.849
15,NCI-H1944,0.815
16,EMC-BAC-2,0.916
17,NCI-H1395,0.95
18,LC-2-ad,0.928
19,NCI-H2085,0.778
20,NCI-H727,0.772
21,NCI-H647,1.06
22,NCI-H3122,1.04
23,LCLC-97TM1,0.981
24,NCI-H23,1.16
25,NCI-H2347,1.02
26,LXF-289,0.883
27,RERF-LC-KJ,0.903

# Same assay, conditions: first compound 0.3162 µM
row,Cell Line,relative viability
1,LK-2,0.835
2,NCI-H1703,0.924
3,NCI-H1993,0.8
4,NCI-H1355,0.837
5,NCI-H1915,0.87
6,A-427,0.973
7,EKVX,0.253
8,NCI-H1734,0.903
9,LU99A,1.03
10,NCI-H460,0.82
11,NCI-H2170,0.266
12,HCC-15,0.613
13,NCI-H1944,0.725
14,EMC-BAC-2,0.812
15,LC-2-ad,0.778
16,NCI-H2085,0.766
17,NCI-H727,1.16
18,NCI-H647,0.852
19,HARA,0.782
20,NCI-H3122,1.12
21,LCLC-97TM1,1.63
22,NCI-H23,0.749
23,HCC-827,0.22
24,NCI-H2347,0.628
25,LXF-289,0.87
26,NCI-H1666,0.72
27,RERF-LC-KJ,0.799
28,NCI-H322M,0.801

# Same assay, conditions: first compound 1 µM
row,Cell Line,relative viability
1,LK-2,0.505
2,NCI-H2405,1.1
3,NCI-H1703,0.987
4,NCI-H1993,0.793
5,NCI-H1355,1.08
6,HCC-366,1.05
7,NCI-H1915,0.985
8,NCI-H838,1.12
9,A-427,1.04
10,EKVX,0.208
11,NCI-H2087,0.967
12,NCI-H1734,0.993
13,LU99A,0.916
14,NCI-H460,0.926
15,NCI-H2170,0.267
16,HCC-15,0.773
17,NCI-H1944,0.789

row,Cell Line,relative viability
1,EMC-BAC-2,0.882
2,NCI-H1395,1.19
3,LC-2-ad,0.866
4,NCI-H2085,0.695
5,NCI-H727,0.886
6,NCI-H647,0.949
7,HARA,0.625
8,NCI-H3122,1.02
9,CAL-12T,0.618
10,LCLC-97TM1,0.696
11,NCI-H23,1.36
12,HCC-827,0.191
13,NCI-H2347,0.637
14,LXF-289,0.965
15,NCI-H1666,0.654
16,RERF-LC-KJ,0.891
17,NCI-H322M,0.491

# Compound: Cc1nc(NC(=O)N2CCC[C@H]2C(N)=O)sc1-c1ccnc(C(C)(C)C(F)(F)F)c1 [Alpelisib] + CC1(C)CCC(c2ccc(Cl)cc2)=C(CN2CCN(c3ccc(C(=O)NS(=O)(=O)c4ccc(N[C@H](CCN5CCOCC5)CSc5ccccc5)c(S(=O)(=O)C(F)(F)F)c4)cc3)CC2)C1 [Navitoclax] (partner 0.5 µM)
# Experiment: as above
# Conditions: first compound 0.04 µM
# How it was run: as §1
row,Cell Line,relative viability
1,LK-2,0.751
2,NCI-H2405,1.05
3,NCI-H1703,1.01
4,NCI-H1993,1.11
5,NCI-H1355,0.89
6,HCC-366,1.02
7,NCI-H1915,0.8
8,NCI-H838,1.02
9,A-427,0.837
10,EKVX,0.969
11,NCI-H2087,1.01
12,NCI-H1734,0.835
13,LU99A,0.785
14,NCI-H460,1.06
15,NCI-H2170,0.54
16,HCC-15,0.627
17,NCI-H1944,0.964
18,EMC-BAC-2,1.11
19,NCI-H1395,1.18
20,LC-2-ad,0.441
21,NCI-H2085,1.2
22,NCI-H727,0.33
23,NCI-H647,1.04
24,HARA,1.13
25,NCI-H3122,1.03
